Assay results from the kinase profiling compilation of Christmann-Franck et al. (2016).

Assays:
Assay in all cases: KINOMEscan competition binding
Settings in all cases: compound 10.0 µM
[1] = system: ABL1 (human), P00519 [T315I]
[2] = target: LRRK2 (human) (UniProt Q5S007)
[3] = target: EIF2AK1 (human) (UniProt Q9BQI3)
[4] = system: ABL1 (human), P00519 [Q252H]
[5] = target: ABL1 (human) (UniProt P00519)
[6] = target: GSG2 (human) (UniProt Q8TF76)
[7] = target: RPS6KA3 KD2 (human) (UniProt P51812)
[8] = target: SGK1 (human) (UniProt O00141)
[9] = target: WNK1 (human) (UniProt Q9H4A3)
[10] = target: BUB1 (human) (UniProt O43683)
[11] = target: WNK3 (human) (UniProt Q9BYP7)

Chain of LRRK2 (human) (Q5S007 whole entry, looked up): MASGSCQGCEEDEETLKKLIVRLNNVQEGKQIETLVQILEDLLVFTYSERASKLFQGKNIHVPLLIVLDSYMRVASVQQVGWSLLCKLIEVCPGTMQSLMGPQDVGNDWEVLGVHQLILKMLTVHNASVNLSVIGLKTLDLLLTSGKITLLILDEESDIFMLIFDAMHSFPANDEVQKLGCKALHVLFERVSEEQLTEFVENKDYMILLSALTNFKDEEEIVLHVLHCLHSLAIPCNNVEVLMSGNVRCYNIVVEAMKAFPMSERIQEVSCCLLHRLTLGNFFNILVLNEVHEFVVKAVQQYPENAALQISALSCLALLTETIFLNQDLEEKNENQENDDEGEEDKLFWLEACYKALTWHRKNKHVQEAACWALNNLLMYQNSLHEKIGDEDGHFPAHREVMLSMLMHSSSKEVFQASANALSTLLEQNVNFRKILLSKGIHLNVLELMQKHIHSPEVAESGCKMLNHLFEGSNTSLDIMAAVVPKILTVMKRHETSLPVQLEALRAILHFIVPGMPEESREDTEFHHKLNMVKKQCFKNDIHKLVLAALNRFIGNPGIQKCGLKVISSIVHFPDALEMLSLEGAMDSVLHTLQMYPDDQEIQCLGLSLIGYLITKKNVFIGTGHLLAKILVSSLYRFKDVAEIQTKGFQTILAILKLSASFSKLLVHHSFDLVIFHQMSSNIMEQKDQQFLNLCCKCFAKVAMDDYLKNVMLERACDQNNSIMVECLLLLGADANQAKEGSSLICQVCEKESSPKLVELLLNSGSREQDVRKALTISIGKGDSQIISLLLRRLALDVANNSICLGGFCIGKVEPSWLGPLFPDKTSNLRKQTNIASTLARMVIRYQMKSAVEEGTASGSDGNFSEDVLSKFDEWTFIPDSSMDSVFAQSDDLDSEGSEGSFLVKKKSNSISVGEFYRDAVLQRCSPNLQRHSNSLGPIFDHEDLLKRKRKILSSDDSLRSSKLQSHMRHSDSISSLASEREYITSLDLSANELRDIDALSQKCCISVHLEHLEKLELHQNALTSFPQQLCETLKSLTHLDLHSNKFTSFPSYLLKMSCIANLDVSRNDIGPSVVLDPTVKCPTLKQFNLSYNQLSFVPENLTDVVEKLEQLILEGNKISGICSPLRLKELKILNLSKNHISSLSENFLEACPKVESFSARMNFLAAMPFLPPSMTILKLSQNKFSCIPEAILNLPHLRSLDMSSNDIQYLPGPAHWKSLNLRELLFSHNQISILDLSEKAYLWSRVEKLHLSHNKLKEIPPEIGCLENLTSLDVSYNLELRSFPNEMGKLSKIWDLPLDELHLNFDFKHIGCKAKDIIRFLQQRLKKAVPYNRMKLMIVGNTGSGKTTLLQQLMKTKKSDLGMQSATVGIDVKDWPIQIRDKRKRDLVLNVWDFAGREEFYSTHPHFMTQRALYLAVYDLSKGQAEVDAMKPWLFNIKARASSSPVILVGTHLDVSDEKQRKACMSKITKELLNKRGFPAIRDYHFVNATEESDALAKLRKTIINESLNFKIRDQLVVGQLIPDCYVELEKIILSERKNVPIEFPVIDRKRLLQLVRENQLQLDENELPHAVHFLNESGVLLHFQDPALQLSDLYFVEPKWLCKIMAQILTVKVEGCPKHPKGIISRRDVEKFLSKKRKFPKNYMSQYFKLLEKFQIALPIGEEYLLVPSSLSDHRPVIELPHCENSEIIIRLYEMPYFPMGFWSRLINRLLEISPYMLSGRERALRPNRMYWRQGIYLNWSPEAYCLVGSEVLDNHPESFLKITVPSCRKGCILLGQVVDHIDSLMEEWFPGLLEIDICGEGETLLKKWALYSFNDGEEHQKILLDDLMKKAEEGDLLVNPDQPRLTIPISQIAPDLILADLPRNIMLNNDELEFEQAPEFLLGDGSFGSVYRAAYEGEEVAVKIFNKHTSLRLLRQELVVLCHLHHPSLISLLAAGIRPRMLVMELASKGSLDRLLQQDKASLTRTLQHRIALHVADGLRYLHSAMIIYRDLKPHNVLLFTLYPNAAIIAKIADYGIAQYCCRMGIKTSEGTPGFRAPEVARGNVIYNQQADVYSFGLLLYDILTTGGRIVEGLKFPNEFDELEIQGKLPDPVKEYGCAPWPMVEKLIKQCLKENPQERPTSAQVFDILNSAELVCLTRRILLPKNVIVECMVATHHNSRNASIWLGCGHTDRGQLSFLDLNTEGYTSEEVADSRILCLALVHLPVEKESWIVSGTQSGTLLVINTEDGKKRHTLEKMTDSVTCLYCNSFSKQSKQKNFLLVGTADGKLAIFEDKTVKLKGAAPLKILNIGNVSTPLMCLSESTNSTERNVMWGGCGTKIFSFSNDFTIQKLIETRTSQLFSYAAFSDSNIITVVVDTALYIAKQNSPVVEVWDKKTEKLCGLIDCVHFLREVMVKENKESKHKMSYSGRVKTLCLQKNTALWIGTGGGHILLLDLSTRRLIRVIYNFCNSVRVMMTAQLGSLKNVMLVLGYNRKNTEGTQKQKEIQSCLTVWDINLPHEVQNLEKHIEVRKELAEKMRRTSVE
Chain of EIF2AK1 (human) (Q9BQI3 whole entry, looked up): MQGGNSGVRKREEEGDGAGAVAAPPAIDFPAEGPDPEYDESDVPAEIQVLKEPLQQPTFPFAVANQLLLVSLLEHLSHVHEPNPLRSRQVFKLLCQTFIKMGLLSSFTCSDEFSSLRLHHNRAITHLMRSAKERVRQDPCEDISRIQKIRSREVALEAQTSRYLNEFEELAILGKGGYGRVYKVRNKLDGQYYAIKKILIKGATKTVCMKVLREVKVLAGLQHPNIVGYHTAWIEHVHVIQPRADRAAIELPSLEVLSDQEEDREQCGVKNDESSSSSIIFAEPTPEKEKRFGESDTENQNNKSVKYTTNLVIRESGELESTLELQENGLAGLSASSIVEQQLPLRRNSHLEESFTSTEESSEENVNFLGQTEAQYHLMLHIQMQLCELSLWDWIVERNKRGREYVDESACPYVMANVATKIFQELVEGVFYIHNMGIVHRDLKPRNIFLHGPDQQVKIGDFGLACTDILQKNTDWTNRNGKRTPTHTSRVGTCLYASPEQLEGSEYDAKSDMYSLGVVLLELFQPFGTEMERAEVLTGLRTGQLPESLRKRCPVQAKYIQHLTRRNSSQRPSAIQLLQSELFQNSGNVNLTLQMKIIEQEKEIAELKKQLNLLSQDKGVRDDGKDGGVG
Chain of BUB1 (human) (O43683 whole entry, looked up): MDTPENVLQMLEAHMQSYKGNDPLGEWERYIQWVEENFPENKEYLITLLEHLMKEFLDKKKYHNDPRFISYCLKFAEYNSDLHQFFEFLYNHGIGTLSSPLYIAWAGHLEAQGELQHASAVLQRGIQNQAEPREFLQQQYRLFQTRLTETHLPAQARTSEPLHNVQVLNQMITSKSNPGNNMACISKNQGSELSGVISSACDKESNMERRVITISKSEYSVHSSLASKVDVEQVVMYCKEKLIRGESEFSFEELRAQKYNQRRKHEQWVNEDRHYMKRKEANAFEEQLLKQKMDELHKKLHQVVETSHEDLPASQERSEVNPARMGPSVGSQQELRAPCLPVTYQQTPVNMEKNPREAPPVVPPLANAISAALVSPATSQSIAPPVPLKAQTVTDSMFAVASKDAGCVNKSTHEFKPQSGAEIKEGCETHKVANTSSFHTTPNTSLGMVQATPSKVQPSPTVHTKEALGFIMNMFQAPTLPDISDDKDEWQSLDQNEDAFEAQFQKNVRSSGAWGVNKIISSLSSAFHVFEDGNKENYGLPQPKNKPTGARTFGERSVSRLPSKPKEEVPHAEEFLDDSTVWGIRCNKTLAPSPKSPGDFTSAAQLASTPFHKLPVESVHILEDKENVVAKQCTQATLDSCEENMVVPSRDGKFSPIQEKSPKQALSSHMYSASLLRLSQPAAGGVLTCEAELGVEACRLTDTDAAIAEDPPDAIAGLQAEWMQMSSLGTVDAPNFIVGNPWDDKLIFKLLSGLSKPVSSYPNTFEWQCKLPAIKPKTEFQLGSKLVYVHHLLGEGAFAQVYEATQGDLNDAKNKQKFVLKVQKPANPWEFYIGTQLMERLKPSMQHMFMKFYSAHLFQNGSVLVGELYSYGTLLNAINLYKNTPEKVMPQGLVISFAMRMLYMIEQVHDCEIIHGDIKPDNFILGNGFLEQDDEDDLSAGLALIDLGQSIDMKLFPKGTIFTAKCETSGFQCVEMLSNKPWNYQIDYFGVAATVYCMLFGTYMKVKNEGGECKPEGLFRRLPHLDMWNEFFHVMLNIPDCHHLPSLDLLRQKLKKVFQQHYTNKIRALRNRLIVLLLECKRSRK
Chain of SGK1 (human) (O00141 whole entry, looked up): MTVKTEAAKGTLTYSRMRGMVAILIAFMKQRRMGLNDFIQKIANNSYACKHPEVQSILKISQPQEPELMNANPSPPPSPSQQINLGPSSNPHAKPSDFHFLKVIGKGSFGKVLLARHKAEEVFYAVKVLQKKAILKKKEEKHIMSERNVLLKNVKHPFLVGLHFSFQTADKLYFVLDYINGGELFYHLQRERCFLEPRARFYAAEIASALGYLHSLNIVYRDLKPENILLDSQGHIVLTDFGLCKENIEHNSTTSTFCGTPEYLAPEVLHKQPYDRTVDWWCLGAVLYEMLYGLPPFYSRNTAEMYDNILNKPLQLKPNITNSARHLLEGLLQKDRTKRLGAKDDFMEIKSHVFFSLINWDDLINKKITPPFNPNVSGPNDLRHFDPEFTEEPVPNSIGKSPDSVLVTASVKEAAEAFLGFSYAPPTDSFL

| kinase still bound, per cent of control [1] [%] | kinase still bound, per cent of control [4] [%] | kinase still bound, per cent of control [5] [%] | SMILES | kinase still bound, per cent of control [2] [%] | kinase still bound, per cent of control [3] [%] | also measured |
| --- | --- | --- | --- | --- | --- | --- |
| – | – | – | O=C(NC1CC1)c1cccc(-c2ccc3c(NC(=O)C4CC4)n[nH]c3c2)c1 | 100 | 100 | – |
| – | – | – | C=CC(=O)Nc1cccc(Nc2nc(N[C@H]3CC[C@H](N(C)C)CC3)nc3c2ncn3C(C)C)c1 | 61 | 100 | – |
| – | – | – | Nc1ccc(-c2ccc3ncc4ccc(=O)n(-c5cccc(C(F)(F)F)c5)c4c3c2)cn1 | 80 | 91 | – |
| 100 | 100 | 100 | COc1cc(C(=O)NC2CCN(C)CC2)ccc1Nc1ncc2c(n1)N(C1CCCC1)C(C)CC(=O)N2C (stereo not given) | – | – | – |
| – | – | – | COc1cc(N2CCN(C)CC2)ccc1Nc1nc(N)c(C(=O)c2c(Cl)cccc2Cl)s1 | 81 | 100 | – |
| – | – | – | Cc1cc([C@@H](C)Nc2ccccc2C(=O)O)c2nc(N3CCOCC3)cc(=O)n2c1 | 100 | 97 | – |
| – | – | – | CCN1CCN(Cc2ccc(Nc3ncc4c(n3)N(C)c3ccccc3C(=O)N4C)cc2C(F)(F)F)CC1 | 15 | 100 | – |
| 100 | 100 | 100 | Cc1ccc(C(=O)Nc2cccc(C(F)(F)F)c2)cc1Nc1cncc(C(N)=O)c1 | – | – | – |
| – | – | – | Cc1ccc(NC(=O)c2cccc(C(C)(C)C#N)c2)cc1Nc1ccc2ncn(C)c(=O)c2c1 | 32 | 84 | – |
| – | – | – | C[C@@H](Oc1cc(-n2cnc3ccc(CN4CCN(C)CC4)cc32)sc1C(N)=O)c1ccccc1C(F)(F)F | 60 | 94 | – |
| – | – | – | O=C1Nc2ccc(I)cc2/C1=C/c1cc(Br)c(O)c(Br)c1 | 11 | 57 | – |
| – | – | – | CN(C)C/C=C/C(=O)Nc1cccc(Nc2ncc3c(n2)N(C)c2ccccc2C(=O)N3C)c1 | 31 | 100 | – |
| 100 | 100 | 100 | CC[C@@H]1C(=O)N(C)c2cnc(Nc3ccc(C(=O)NC4CCN(C)CC4)cc3OC)nc2N1C1CCCC1 | – | – | – |
| – | – | – | N#Cc1c(NC(=O)c2cccc3ccccc23)sc2c1CCCC2 | 94 | 100 | kinase still bound, per cent of control [6]: 100%; kinase still bound, per cent of control [7]: 100%; kinase still bound, per cent of control [8]: 100%; kinase still bound, per cent of control [9]: 89%; kinase still bound, per cent of control [10]: 100%; kinase still bound, per cent of control [11]: 100% |
| 100 | 100 | 100 | Cn1c(=O)n(-c2ccc(C(C)(C)C#N)cc2)c2c3cc(-c4cnc5ccccc5c4)ccc3ncc21 | – | – | – |
| 100 | 100 | 100 | OCCCNc1cc(-c2ccnc(Nc3cccc(Cl)c3)n2)ccn1 | – | – | – |
| 100 | 100 | 100 | C=CC(=O)Nc1cccc(Oc2nc(Nc3ccc(N4CCN(C)CC4)cc3OC)ncc2Cl)c1 | – | – | – |
| – | – | – | O=C(NOC[C@H](O)CO)c1ccc(F)c(F)c1Nc1ccc(I)cc1F | 86 | 100 | kinase still bound, per cent of control [6]: 100%; kinase still bound, per cent of control [7]: 100%; kinase still bound, per cent of control [8]: 100%; kinase still bound, per cent of control [9]: 92%; kinase still bound, per cent of control [10]: 100%; kinase still bound, per cent of control [11]: 100% |
| 100 | 100 | 100 | COc1cc(C(=O)NC2CCN(C)CC2)ccc1Nc1ncc2c(n1)N(C1CCCC1)CCC(=O)N2C(C)C | – | – | – |
| – | – | – | C=CC(=O)Nc1cc(NC(=O)c2ccc(C)c(NC(=O)c3ccno3)c2)cc(C(F)(F)F)c1 | 89 | 100 | – |
| – | – | – | O=C(O)c1ccc(Nc2ncc3c(n2)-c2ccc(Cl)cc2C(c2c(F)cccc2F)=NC3)cc1 | 82 | 89 | – |

| SMILES | kinase still bound, per cent of control [1] [%] | kinase still bound, per cent of control [4] [%] | kinase still bound, per cent of control [5] [%] | kinase still bound, per cent of control [2] [%] | kinase still bound, per cent of control [3] [%] | also measured |
| --- | --- | --- | --- | --- | --- | --- |
| Cc1ccc2nc(NCCN)c3ncc(C)n3c2c1 | 100 | – | – | 97 | 87 | – |
| CCCS(=O)(=O)Nc1ccc(F)c(C(=O)c2c[nH]c3ncc(-c4ccc(Cl)cc4)cc23)c1F | 79 | – | 57 | 59 | 60 | – |
| CCC(=O)N1CCN(c2ccc(-n3c(=O)ccc4cnc5ccc(-c6cnc7ccccc7c6)cc5c43)cc2C(F)(F)F)CC1 | – | – | 60 | 81 | 57 | – |
| CCOc1cc2ncc(C#N)c(Nc3ccc(OCc4ccccn4)c(Cl)c3)c2cc1NC(=O)/C=C/CN(C)C | – | 71 | 100 | 99 | 100 | – |
